This is an account of results in patent publication US4163051A, “Streptomycetal antibiotic” (Beecham Group Limited, priority 1975, dated 1979).

Where a name gives a salt, the structure may show the parent alone.

Data set [1] deals with certain gram-positive and gram-negative organisms. The data set can be described thus: antibacterial activity, microtitre method (general statement). It counts as cell-based. The conditions noted are these: substantially pure. An excerpt: It is likely that MM 17880 has a molecular weight between 300 and 500. […] Thus MM 17880 has the molecular formula C11-14 […]-23 O8-11 N2 S2.

In data set [2] the target is T1, β-lactamase from E. coli JT4 (Escherichia coli, UniProt P62593).
T1 construct: β-lactamase from E. coli JT4; endogenous in cells; host or cells: E. coli JT4
T1 sequence (P62593 24-286 limits assumed): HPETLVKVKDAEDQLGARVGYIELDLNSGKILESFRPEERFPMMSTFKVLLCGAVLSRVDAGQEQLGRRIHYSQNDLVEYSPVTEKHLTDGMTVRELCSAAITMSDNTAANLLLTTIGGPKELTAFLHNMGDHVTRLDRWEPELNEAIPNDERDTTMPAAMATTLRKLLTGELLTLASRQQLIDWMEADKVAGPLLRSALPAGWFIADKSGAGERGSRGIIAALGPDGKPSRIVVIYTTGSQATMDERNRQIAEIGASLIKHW
Kind of data set: β-lactamase inhibition by the method of Belgian Pat. No. 827331. The conditions noted are these: read-out: I50 (converted). It counts as biochemical.

Data set [3] has as its system certain β-lactamase producing strains of Staphylococcus aureus and Klebsiella aerogenes. Kind of data set: synergy with β-lactam antibiotics (general statement). It counts as cell-based. The note with it: substantially pure; with ampicillin, amoxycillin and the like.
Data set [4] concerns Klebsiella aerogenes A. The data set can be described thus: activity in combination with ampicillin and cephaloridine (synergy, MIC). It counts as cell-based. The method, then:
(§1) The antibacterial activity of the material produced as above was determined by the microtitre method using the overnight inoculum of the test organism at 0.2% concentration. The synergistic activity of the di-sodium salt of MM 17880 in combination with ampicillin and with cephaloridine against Klebsiella aerogenes and Staphylococcus aureus Russell are shown in Table 3.

Data set [5] has as its system Staphylococcus aureus Russell. Described as above. It counts as cell-based. The method, then:
as §1

For the next data set, the system named is Klebsiella aerogenes. The data set can be described thus: hole in plate method on agar seeded with Klebsiella aerogenes (arbitrary units). It counts as cell-based. The note with it: final solid of Example 1, sodium salt. The procedure: 300 ml. of 10% Pluronic L81 in soya-bean oil was added to prevent foaming. The fermentation was harvested after 48 hours and clarified by centrifugation. The clarified brew was arbitarily assigned an activity of 340 units/ml when assayed by the conventional hole in plate method on agar seeded with Klebsiella aerogenes.

Another data set has as its system E. coli 10418. Kind of data set: antibacterial activity (MIC), microtitre method, heavy inoculum. It counts as cell-based. The note with it: overnight inoculum at 0.2%. The method, then: as §1
(§2) Microtitre - heavy inoculum

Another data set relates to E. coli JT4. The data set is described as above. It counts as cell-based. The conditions noted are these: overnight inoculum at 0.2%. The method, then:
as §1, §2

The next data set relates to Proteus vulgaris W090. The data set is described as above. The conditions noted are these: overnight inoculum at 0.2%. It counts as cell-based. The method, then: as §1, §2
In the next data set the test system is Serratia marcescens US1. Described as above. It counts as cell-based. The conditions noted are these: overnight inoculum at 0.2%. The procedure:
as §1, §2

In the next data set the test system is Proteus retigeri VM16. The data set is described as above. It counts as cell-based. The conditions noted are these: overnight inoculum at 0.2%. The method, then: as §1, §2
Data set [6] concerns Klebsiella aerogenes Ba95. Described as above. The note with it: overnight inoculum at 0.2%. It counts as cell-based. The method, then:
as §1, §2

The subject of data set [7] is Klebsiella aerogenes A. The description is as above. It counts as cell-based. The note with it: overnight inoculum at 0.2%. The procedure:
as §1, §2

The subject of the next data set is Proteus mirabilis 13. Described as above. It counts as cell-based. The note with it: overnight inoculum at 0.2%. The method, then: as §1, §2
Data set [8] relates to Staphylococcus aureus Oxford. The data set is described as above. It counts as cell-based. The note with it: overnight inoculum at 0.2%. The method, then: as §1, §2
A further data set relates to Bacillus subtilis. Described as above. It counts as cell-based. The note with it: overnight inoculum at 0.2%. The method, then:
as §1, §2

The next data set deals with Proteus morganii 1580. The description is as above. It counts as cell-based. The conditions noted are these: overnight inoculum at 0.2%. The procedure:
as §1, §2

The subject of a further data set is Pseudomonas aeruginosa A. The data set is described as above. It counts as cell-based. The conditions noted are these: overnight inoculum at 0.2%. The procedure:
as §1, §2

Data set [9] has as its system Streptococcus pyrogenes CN10. Described as above. It counts as cell-based. The conditions noted are these: overnight inoculum at 0.2%. The method, then:
as §1, §2

The subject of a further data set is Streptococcus faccalis I. Described as above. It counts as cell-based. The conditions noted are these: overnight inoculum at 0.2%. The procedure: as §1, §2
The test system of data set [10] is Salmonella typhimurium CT10. The data set is described as above. It counts as cell-based. The note with it: overnight inoculum at 0.2%. The method, then:
as §1, §2

Data set [11] relates to Citrobacter freundii Mantio. Described as above. It counts as cell-based. The note with it: overnight inoculum at 0.2%. The method, then: as §1, §2
In data set [12] the test system is Staphylococcus aureus Russell. The description is as above. It counts as cell-based. The conditions noted are these: overnight inoculum at 0.2%. The procedure:
as §1, §2

Data set [13] in a line: stability of salts and unsalted acid. It counts as physicochemical. The note with it: salts vs unsalted acid; in solution.

As for `CC(=O)NCCSC1=C(C(=O)O)N2C(=O)C(C(C)OS(=O)(=O)O)C2C1` (stereo not shown) [di-sodium salt of MM 17880], the “level of antibacterial activity” value in [1] was “good level of antibacterial activity”. Also, the IC50 in [2] is 0.634 nM. The “synergy with β-lactam antibiotics” value in [3] is given as “able to synergyse the anti-bacterial activity of β-lactam antibiotics”.
Take `CC1(C)S[C@@H]2[C@H](NC(=O)[C@H](N)c3ccccc3)C(=O)N2[C@H]1C(=O)O` [Ampicillin, ampicillin]: the MIC stood at 250 µg/mL with Klebsiella aerogenes A [4] and 500 µg/mL in [5].
Turning to `O=C(Cc1cccs1)N[C@@H]1C(=O)N2C(C(=O)[O-])=C(C[n+]3ccccc3)CS[C@H]12` [Cephaloridine, cephaloridine], the MIC in the data set on Klebsiella aerogenes A [4] (compound alone) is 5.0 µg/mL; in [5] (compound alone), 1.25 µg/mL.
As for `CC(=O)NCCSC1=C(C(=O)O)N2C(=O)C(C(C)OS(=O)(=O)O)C2C1` (stereo not shown) [MM 17880], the MIC amounted to 0.2 µg/mL in the data set on Klebsiella aerogenes A [4]; 3.1 µg/mL in data set [5]; 0.1 µg/mL in the data set with E. coli 10418; 3.1 µg/mL in the data set with E. coli JT4; 0.2 µg/mL with Proteus vulgaris W090; 0.4 µg/mL with Serratia marcescens US1. Moreover, the MIC turned out to be 0.2 µg/mL with Proteus retigeri VM16; 12.5 µg/mL in data set [6]; 0.8 µg/mL with Klebsiella aerogenes A [7]; 1.6 µg/mL in the data set with Proteus mirabilis 13; 0.4 µg/mL in data set [8]; 0.2 µg/mL with Bacillus subtilis. The MIC is 1.6 µg/mL in the data set on Proteus morganii 1580; > 50 µg/mL in the data set with Pseudomonas aeruginosa A; < 0.01 µg/mL in data set [9]; 6.2 µg/mL with Streptococcus faccalis I; 0.2 µg/mL in [10]; 3.1 µg/mL in [11]. Further, the MIC in data set [12] came to 0.4 µg/mL. Also, the “activity (assayed, arbitrary units)” value with Klebsiella aerogenes is reported as 16,000 units/mg. Further, in [13], the stability result is reported as “tends to decompose in solution”.

As usually defined, the MIC is the least concentration at which growth counts as inhibited.
